Test results reported in patent US9242941B2, “Alkyl, fluoroalkyl-1,4-benzodiazepinone compounds” (BRISTOL-MYERS SQUIBB COMPANY, priority 2012, dated 2016).

What was measured:
[1] = human metabolic stability half-life assay; conditions: microsomes, human liver microsomes
Method: Metabolic Stability Half-Life Panel
Incubation with Liver Microsomes

human Notch 3 = test: Notch-CBF1 Transactivation Assay (Notch 3); type: cell-based; conditions: read-out: Notch 3 IC50; Notch-CBF1 transactivation luciferase assay in transfected HeLa cells; some values are an average of N experiments
Description: (§1) Notch-CBF1 Transactivation Assay
(§2) The Notch-CBF1 (C-promoter binding factor I) cell based transactivation assay is based on the ability of the released Notch intracellular domain fragments (NICDs) to function as transcription factors in conjunction with CBF1 and other nuclear factors. Luciferase assays were used to measure the antagonism of Notch-CBF1 transcriptional activity. HeLa cervical cancer cells are transiently co-transfected with pCDNA3.1/Hygro plasmids containing truncated Notch 1, Notch 2, Notch 3, or Notch 4 receptors and a PGL3 luciferase reporter vector containing 4 copies of CBF1 binding site. The cells were then tested for Notch-CBF1 activity in the absence or presence of test compounds. HeLa cells, maintained in DMEM (high glucose with HEPES), 1× glutamine/penicillin/streptomycin and 10% Fetal Bovine serum, were transiently transfected in a T175 Flask (4.5×10^6 cells/flask) using the Monster Transfection Kit (Minis #MIR2906) according to manufacturers specifications. Table 13 denotes respective DNA quantity for the transfections.
(§3) Assay media (5 μL) containing test compounds in final concentrations ranging from 5 μM to 8.4×10^−5 μM (3 fold serial dilutions) were added to the cells and the cell plates were then incubated for 18 hours at 37° C. and 5% CO2. Control wells contained DMSO vehicle (total counts) or 0.5 μM of an in-house small molecule inhibitor (background counts). Duplicates were used for each sample. Luciferase activity was measured after a 20-minute incubation with 50 μl STEADY-GLO® luciferase reagents according to manufacturer's specifications (Promega, Cat. #E2550) and analyzed by Envision plate reader (PerkinElmer, Boston, Mass.).
(§4) The antagonist effect of compounds was expressed as 100×[1−(average sample−average background)/(average total−average background)] where sample is the luciferase activity in the presence of test compound, background is equal to the luciferase activity in the presence of the small molecule inhibitor control and the total is signal induced in DMSO wells.

human Notch 1 = test: Notch-CBF1 Transactivation Assay (Notch 1); type: cell-based; conditions: read-out: Notch 1 IC50; Notch-CBF1 transactivation luciferase assay in transfected HeLa cells; some values are an average of N experiments
Description: as §1, §2, §3, §4

[2] = pH 7.4, CYP-mediated metabolic stability half life, NADPH-dependent
[3] = pH 7.4, HLM (t1/2, min), CYP-mediated (NADPH-dependent), 0.5 μM compound, 45 min time course, some values are an average of N experiments

Row | SMILES | half-life at 0.5 µM [1, 2] [min] | half-life at 0.5 µM [1, 3] [min] | IC50 (human Notch 3) [nM] | IC50 (human Notch 1) [nM]
1 | Cc1cccc(C2=N[C@H](NC(=O)[C@H](CCC(F)(F)F)[C@H](CC3CC3)C(N)=O)C(=O)Nc3c(F)cccc32)c1 [Example 19, (2R,3S)-3-(Cyclopropylmethyl)-N-((3S)-9-fluoro-5-(3-methylphenyl)-2-oxo-2,3-dihydro-1H-1,4-benzodiazepin-3-yl)-2-(3,3,3-trifluoropropyl)succinamide] | ≥ 30 | 56 | 7.2 | 2.7
2 | CN1C(=O)[C@@H](NC(=O)[C@H](CCC(F)(F)F)[C@H](CC2CC2)C(N)=O)N=C(c2ccccc2)c2cccc(F)c21 [Example 20, (2R,3S)-3-(Cyclopropylmethyl)-N-((3S)-9-fluoro-1-methyl-2-oxo-5-phenyl-2,3-dihydro-1H-1,4-benzodiazepin-3-yl)-2-(3,3,3-trifluoropropyl)succinamide] | ≥ 30 | 106 | 9.1 | 3.4
3 | COc1cccc2c1NC(=O)[C@@H](NC(=O)[C@H](CCC(F)(F)F)[C@H](CC1CC1)C(N)=O)N=C2c1ccc(Cl)cc1 [Example 21, (2R,3S)—N-((3S)-5-(4-Chlorophenyl)-9-methoxy-2-oxo-2,3-dihydro-1H-1,4-benzodiazepin-3-yl)-3-(cyclopropylmethyl)-2-(3,3,3-trifluoropropyl)succinamide] | ≥ 30 | 62 | 2.4 | 2.4
4 | COc1cccc(C2=N[C@H](NC(=O)[C@H](CCC(F)(F)F)[C@H](CC3CC3)C(N)=O)C(=O)Nc3c(F)cccc32)c1 [Example 22, (2R,3S)-3-(Cyclopropylmethyl)-N-((3S)-9-fluoro-5-(3-methoxyphenyl)-2-oxo-2,3-dihydro-1H-1,4-benzodiazepin-3-yl)-2-(3,3,3-trifluoropropyl)succinamide] | ≥ 30 | 32 | 12.5 | 12.9
5 | NC(=O)[C@@H](CC1CC1)[C@@H](CCC(F)(F)F)C(=O)N[C@H]1N=C(c2cccc(F)c2)c2cccc(F)c2NC1=O [Example 23, (2R,3S)-3-(Cyclopropylmethyl)-N-((3S)-9-fluoro-5-(3-fluorophenyl)-2-oxo-2,3-dihydro-1H-1,4-benzodiazepin-3-yl)-2-(3,3,3-trifluoropropyl)succinamide] | ≥ 30 | 69 | 8 | 4.8
6 | NC(=O)[C@@H](CC1CC1)[C@@H](CCC(F)(F)F)C(=O)N[C@H]1N=C(c2cccc(Cl)c2)c2cccc(F)c2NC1=O [Example 24, (2R,3S)—N-((3S)-5-(3-Chlorophenyl)-9-fluoro-2-oxo-2,3-dihydro-1H-1,4-benzodiazepin-3-yl)-3-(cyclopropylmethyl)-2-(3,3,3-trifluoropropyl)succinamide] | ≥ 30 | 76 | 2.7 | 3.7
7 | CCC[C@H](C(N)=O)[C@@H](CCC(F)(F)F)C(=O)N[C@H]1N=C(c2ccc(Cl)cc2)c2cccc(OC)c2NC1=O [Example 25, (2R,3S)—N-((3S)-5-(4-Chlorophenyl)-9-methoxy-2-oxo-2,3-dihydro-1H-1,4-benzodiazepin-3-yl)-3-propyl-2-(3,3,3-trifluoropropyl)succinamide] | ≥ 30 | 31 | 5.6 | 6.8
8 | NC(=O)[C@@H](CC1CC1)[C@@H](CCC(F)(F)F)C(=O)N[C@H]1N=C(c2cccc(Cl)c2)c2cccc(Cl)c2NC1=O [Example 26, (2R,3S)—N-((3S)-9-Chloro-5-(3-chlorophenyl)-2-oxo-2,3-dihydro-1H-benzo[e][1,4]diazepin-3-yl)-3-(cyclopropylmethyl)-2-(3,3,3-trifluoropropyl)succinamide] | ≥ 30 | 96 | 2.1 | 1.9
9 | NC(=O)[C@@H](CC1CC1)[C@@H](CCC(F)(F)F)C(=O)N[C@H]1N=C(c2ccc(Cl)cc2)c2cccc(Cl)c2NC1=O [Example 27, (2R,3S)—N-((3S)-9-Chloro-5-(4-chlorophenyl)-2-oxo-2,3-dihydro-1H-1,4-benzodiazepin-3-yl)-3-(cyclopropylmethyl)-2-(3,3,3-trifluoropropyl)succinamide] | ≥ 30 | 81 | 1.6 | 4.6
10 | CCC[C@H](C(N)=O)[C@@H](CCC(F)(F)F)C(=O)N[C@H]1N=C(c2ccc(Cl)cc2)c2cccc(Cl)c2NC1=O [Example 28, (2R,3S)—N-((3S)-9-Chloro-5-(4-chlorophenyl)-2-oxo-2,3-dihydro-1H-1,4-benzodiazepin-3-yl)-3-propyl-2-(3,3,3-trifluoropropyl)succinamide] | ≥ 30 | 39 | 1.7 | 1.7
11 | COc1ccc2c(c1F)NC(=O)[C@@H](NC(=O)[C@H](CCC(F)(F)F)[C@H](CC1CC1)C(N)=O)N=C2c1ccccc1 [Example 29, (2R,3S)-3-(Cyclopropylmethyl)-N-((3S)-9-fluoro-8-methoxy-2-oxo-5-phenyl-2,3-dihydro-1H-1,4-benzodiazepin-3-yl)-2-(3,3,3-trifluoropropyl)succinamide] | ≥ 30 | 99 | 7.1 | 3.1
12 | Cc1cccc(C2=N[C@H](NC(=O)[C@H](CCC(F)(F)F)[C@H](CC3CC3)C(N)=O)C(=O)Nc3c(Cl)cccc32)c1 [Example 30, (2R,3S)—N-((3S)-9-Chloro-5-(3-methylphenyl)-2-oxo-2,3-dihydro-1H-1,4-benzodiazepin-3-yl)-3-(cyclopropylmethyl)-2-(3,3,3-trifluoropropyl)succinamide] | ≥ 30 | 74 | 5.2 | 2.5
13 | COc1cccc2c1NC(=O)[C@@H](NC(=O)[C@H](CCC(F)(F)F)[C@H](CC1CC1)C(N)=O)N=C2c1cccc(C)c1 [Example 31, (2R,3S)-3-(Cyclopropylmethyl)-N-((3S)-9-methoxy-5-(3-methylphenyl)-2-oxo-2,3-dihydro-1H-1,4-benzodiazepin-3-yl)-2-(3,3,3-trifluoropropyl)succinamide] | ≥ 30 | 52 | 7.9 | 5.6
14 | CCC[C@H](C(N)=O)[C@@H](CCC(F)(F)F)C(=O)N[C@H]1N=C(c2ccccc2)c2cccc(C#N)c2NC1=O [Example 32, (2R,3S)—N-((3S)-9-Cyano-2-oxo-5-phenyl-2,3-dihydro-1H-1,4-benzodiazepin-3-yl)-3-propyl-2-(3,3,3-trifluoropropyl)succinamide] | ≥ 30 | 55 | 19.7 | 8.3
15 | COc1cccc2c1NC(=O)[C@@H](NC(=O)[C@H](CCC(F)(F)F)[C@H](CC1(C)CC1)C(N)=O)N=C2c1ccccc1 [Example 33, (2R,3S)—N-((3S)-9-Methoxy-2-oxo-5-phenyl-2,3-dihydro-1H-1,4-benzodiazepin-3-yl)-3-((1-methylcyclopropyl)methyl)-2-(3,3,3-trifluoropropyl)succinamide] | ≥ 30 | 47 | 5.9 | 3.8
